In patent EP1090646A2, “Labelled d-mannoheptulose derivatives and their use for imaging of the endocrine pancreas” (UNIVERSITE LIBRE DE BRUXELLES, priority 1999, dated 2001):
Where two headings read alike, the source gives them in different places.

Tests used:
[1] = system: tumoral islet cells of the RINm5F line
[2] = system: isolated pancreatic islets
Experimental: (§1) Unless otherwise mentioned, the pancreatic pieces or isolated islets were submitted after incubation, to four successive washes conducted at 4°C with a medium containing 20.0 µM cytochalasin B (Sigma, St. Louis, MO, USA).
In a further series of experiments, groups of 20 islets each were submitted, after incubation, to 6 successive washes at 4°C in the presence of cytochalasin B (20.0 µM).
In the last set of experiments in this series, groups of 20 islets each were incubated for 60 min at 37°C in the presence of D-[^3H]mannoheptulose (0.1 mM), washed thrice at 4°C, further incubated for 60 min at 37°C in the absence of the heptose but presence of cytochalasin B (20.0 µM), again submitted to 4 successive washes, and eventually examined for their radioactive content.

[3] = system: rat pancreatic islets or dispersed islet cells; settings: 60 min incubation at 37°C
[4] = one day after intraperitoneal injection
Experimental: Female Wistar rats (220-230 g body wt.) were injected intravenously with streptozotocin (0.25 µmol/g body wt.) on day zero. Eight to nine days later, they were transplanted with 1,500-6,000 islets prepared by the collagenase procedure (2) from rats of the same sex and strain (Iffa Credo, L'Arbresle, France). The islets were placed (1,500 islets per module) in 1-4 implantation modules (Statice Santé, Besançon, France), which were inserted, under pentobarbital anaesthesia (0.5-0.6 µmol/g body wt.; Nembutal, Sanofi, Brussels, Belgium), into the peritoneal cavity. The modules were equipped with a 20 µm thick polycarbonate membrane (Whatman, Maidstone, Kent, UK) with 6 x 10^8 pores (diameter : 50 nm) per cm^2. The glycemia of the rats was monitored in blood samples collected from the severed end of the tail.
D-[^3H]mannoheptulose (100 µCi in 0.3 ml saline containing 0.1 mM unlabelled D-mannoheptulose) was injected intraperitoneally and the animals killed by decapitation 24 hours later after a last blood sampling from the severed end of the tail had been obtained for measurement of glycemia. The blood collected after decapitation in heparinized vials was used for measurements of radioactivity in aliquots of blood, plasma and erythrocytes, as well as for determination of plasma D-glucose and insulin concentration. Samples of the liver, gastrocnemius muscle and kidney, as well as the whole pancreas, were homogenised in 1.5 ml H2O, aliquot parts of the homogenates being used for DNA and radioactive measurements. The fluid present in the implantation device was aspirated and also examined for its radioactive content. Thereafter, the implantation device was repeatedly frozen and thawn in 0.4 ml H2O, aliquot parts of this extract being then again used for both DNA and radioactive determinations.
The methods used to measure DNA content (3), glycemia (Glycotronic C; Macherey-Nagel, Düren, Germany), plasma D-glucose (4) and insulin (5) concentrations were previously described in the cited references.

[5] = system: tumoral islet cells of the INS-1 line
[6] = system: pieces of pancreas; experiment: Apparent distribution space in pieces of pancreas from control and STZ rats; settings: for apparent distribution space in the presence of D-glucose relative to its absence: D-glucose 8.3 mM; for final distribution space relative to the initial incubation medium radioactive content: after the two successive incubations
Experimental: as §1
In the next series of experiments, the possible uptake of D-[^3H]mannoheptulose was compared to that of its hexaacetate ester in pieces of pancreas from normal rats (Figure 2).
In the last set of experiments in this series, pieces of pancreas from either normal or STZ rats were first incubated for 60 min at 37°C in the presence of 8.3 mM D-glucose, then submitted to 3 washes at 4°C in the presence of the hexose (8.3 mM) and cytochalasin B (20.0 µM), further incubated for 60 min at 37°C, still in the presence of D-glucose and the mould metabolite, and eventually submitted to 4 washes at 4°C prior to measurement of their radioactive content.

[7] = remark: listed apart in the source
Experimental: Two preparations of D-[^3H]mannoheptulose were used. The first preparation, used in a few in vitro experiments and in one set of in vivo experiments (animals injected 30 to 60 min before sacrifice), was a product from Nycomed Amersham (Little Chalfont, Buckinghamshire, UK). […] The second preparation used in all other experiments was a product from NEN Life Science Products (Zaventem, Belgium). […] In all experiments conducted in vivo, the animals were injected intravenously with D-[^3H]mannoheptulose (10-40 µCi, and 200 µCi in the case of the rats killed 48 hours after this injection) placed in 300 µl of saline. Except in the animals killed 30-60 min after D-[^3H]mannoheptulose injection, the inoculate also contained 0.1 mM unlabelled D-mannoheptulose.
In the in vivo experiments, the STZ rats were either not treated with insulin (animals killed 30-60 min after D-[^3H]mannoheptulose injection) or received twice daily 6 U of insulin (Insulatard, Novo Nordisk, Bagsvaerd, Denmark) subcutaneously, the last of these injections being given at about 5 p.m. on the day before either the injection of D-[^3H]mannoheptulose (animals killed 15 min after D-[^3H]mannoheptulose administration) or the sacrifice of the rats (rats examined 48 hours after D-[^3H]mannoheptulose injection). The animals killed 15 min after the injection of D-[^3H]mannoheptulose received a total of either 5 insulin injections, the first being made at about 5 p.m. on the day after streptozotocin administration, or 6 insulin injections given between the third and fifth day after streptozotocin administration. In the rats killed 48 hours after the injection of D-[^3H]mannoheptulose, the insulin treatment was initiated at 9 a.m. 3 days after streptozotocin administration and continued for a total of 5 days.
At stated times after D-[^3H]mannoheptulose intravenous injection, the rats were killed by decapitation, blood was collected in heparinized vials and the plasma separated for measurement of its radioactive content, as well as D-glucose^13 and insulin^14 concentrations. Samples of gastrocnemius muscle, liver, kidney and pancreas were weighed, homogenised in 1.5-3.0 ml of water, and aliquot parts of these homogenates examined for their radioactive content by liquid scintillation.
All radioactive data were calculated as dpm/µl of plasma or dpm/mg wet wt. (muscle, liver, kidney, pancreas). In these four tissues, the results were eventually expressed as µl/mg wet wt., by dividing the radioactive content (dpm/mg) by the paired plasma value (dpm/µl).

[8] = up to the 60th min after injection

[3H][C@@](O)([C@H](O)CO)[C@H](O)[C@H](O)C(=O)CO [D-[^3H]mannoheptulose]
apparent distribution space relative to the intracellular 3HOH space [1]: about 3%
apparent distribution space ([2]; 0.1 mM, 10-120 min incubation at 37°C, only 3 washes at 4°C with cytochalasin B 20.0 µM): ≥ 5.5 nl/islet
apparent distribution space in the presence of D-glucose relative to reference value (no D-glucose) ([2]; 0.1 mM, 30 or 120 min at 37°C, D-glucose 8.3 mM, 3 washes): 161.4 ± 23.7%
increase of apparent distribution space between the 15th and 120th min of incubation ([2]; 0.1 mM, 37°C, 8.3 mM D-glucose, 6 washes): 73.5 ± 30.3%
apparent distribution space relative to that of D-[5-3H]glucose (8.3 mM) ([2]; 0.1 mM, 30 min at 37°C, absence of D-glucose, 6 washes): 77.3 ± 9.4%
final radioactive content of islets first incubated with 8.3 mM D-glucose relative to absence of the hexose ([2]; 0.1 mM, 60 min 37°C, washes, further 60 min with cytochalasin B 20.0 µM): 168.5 ± 19.1%
final radioactive content with cytochalasin B in the first incubation medium containing 8.3 mM D-glucose, relative to reference value ([2]; 0.1 mM, cytochalasin B 20.0 µM, 60 min 37°C then second 60 min incubation): 103.7 ± 14.7%
apparent intracellular distribution space relative to the intracellular 3HOH space [3]: ~50%
calculated radioactive content of the transplanted islets (dpm/mg wet wt.) relative to paired plasma radioactive content (dpm/µl) [4]: 6.49 ± 1.27
paired islet/pancreas ratio [4]: 11.59 ± 0.03
radioactive content calculated for the transplanted islets [4]: 332.7 ± 30.7 dpm/mg wet weight
radioactive content of the kidney [4]: 51.0 ± 0.9 dpm/mg wet weight
radioactive content of the liver [4]: 64.5 ± 6.4 dpm/mg wet weight
radioactive content of the muscle [4]: 28.9 ± 7.8 dpm/mg wet weight
radioactive content of the pancreas [4]: 28.7 ± 2.6 dpm/mg wet weight
volume of distribution, as judged from the plasma radioactive content ([4]; STZ diabetic rats with transplanted islets): 10.0 ± 2.2 ml/g body weight
apparent distribution space relative to the intracellular 3HOH space [5]: ~9%
apparent distribution space in STZ rats relative to control value ([6]; 0.1 mM, 10 to 60 min at 37°C, 8.3 mM D-glucose, overall mean): 89.2 ± 3.6%
apparent distribution space in the presence of cytochalasin B relative to reference value (no cytochalasin B) ([6]; 0.1 mM, 60 min, 8.3 mM D-glucose, cytochalasin B 20.0 µM, pooled control and STZ rats): 101.1 ± 4.1%
apparent distribution space after two successive incubations relative to that after first incubation and immediate washes ([6]; 0.1 mM, STZ rats): 9.4 ± 0.4%
apparent distribution space after two successive incubations relative to that after first incubation and immediate washes ([6]; 0.1 mM, control rats): 14.4 ± 0.4%
ratio between the mean values of apparent distribution space after 60/10 min incubation ([6]; 0.1 mM, normal rats, 37°C, 8.3 mM D-glucose): 1.36 ± 0.16
final distribution space when the first incubation was conducted at 4°C relative to 37°C ([6]; STZ rats): 38.0 ± 3.9%
apparent distribution space in the presence of D-glucose relative to its absence ([6]; STZ rats, 0.1 mM, 60 min): 83.7 ± 4.5%
final distribution space relative to the initial incubation medium radioactive content ([6]; STZ rats): 1.34 ± 0.11%
final distribution space relative to the initial incubation medium radioactive content ([6]; control animals): 1.78 ± 0.10%
final distribution space when the first incubation was conducted at 4°C relative to 37°C ([6]; control rats): 36.9 ± 4.2%
apparent distribution space in the presence of D-glucose relative to its absence ([6]; control rats, 0.1 mM, 60 min): 106.7 ± 6.5%
radioactive content of the transplanted islets relative to that found in the pancreas (60 min after the intravenous injection): about 10 times
radioactive content in the liver and transplanted islets relative to the pancreatic gland (one hour after intravenous injection): 5-8 times
radioactive content of the pancreatic gland relative to paired plasma value, STZ rats as % of mean control value ([7]; 15-2880 min after intravenous injection, all available data pooled): 81.6 ± 4.2%
liver/plasma radioactive ratio, STZ rats as % of normal rats ([7]; STZ animals not treated with insulin, tracer amount only, no unlabelled heptose): 56.1 ± 3.3%
paired ratio liver/plasma radioactivity, STZ rats as % of control rats ([7]; insulin-treated STZ rats (n = 11)): 109.5 ± 8.3%
kidney radioactive content relative to paired plasma value, STZ rats as % of normal rats ([7]; rat, in vivo): 68.1 ± 6.5%
paired ratio muscle/plasma radioactivity, STZ rats as % of control rats ([7]; rat, in vivo): 87.7 ± 6.2%
radioactive content of the pancreatic gland relative to paired plasma value, STZ rats as % of mean control value ([7]; results at 15 min not taken into account): 77.9 ± 5.6%
muscle/liver ratio [7, 8]: ≤ 17.00 ± 1.17%
paired pancreas/muscle ratio [7, 8]: 125.71 ± 7.83%
pancreas/liver ratio [7, 8]: 21.26 ± 1.07%

[3H]O[3H] [^3HOH, reference compound]
apparent distribution space after two successive incubations relative to that after first incubation and immediate washes ([6]; normal or STZ rats pooled (n = 16), second 60 min incubation with D-glucose and cytochalasin B): no more than 1.8 ± 0.4%

[3H][C@@](O)(CO)[C@@H](O)[C@H](O)[C@@H](O)C=O [D-[5-^3H]glucose, reference compound]
apparent distribution space after incubation at 4°C relative to 37°C ([2]; 8.3 mM, 30 min, 6 washes): 55.5 ± 8.3%
